Experimental data reported in patent US20150071918A1, “PEPTIDES FOR THE TREATMENT OF CANCER” (H. LEE MOFFITT CANCER CENTER AND RESEARCH INSTITUTE, INC., priority 2012, published 2015).
Read-outs that look alike come from different tables or passages of the source. Each block holds one molecule with its values, some of them ahead of it. *1 amine or outer side, *2 acyl side, *3 side chain or, on linkers, in order; H or OH if unused. Where a SMILES comes first, the peptide text is derived from it. Bridges are numbered along the chain shown (N, C = ends). [ ]: non-standard residue; d: D form. The star is where a group is joined. dProlinol(O-CH2CO) = O=C(COC[C@H]1CCCN1[*:1])[*:2]; N(2-Aminoethyl)Gly = O=C(CN(CCN[*:3])[*:1])[*:2]; Nle = CCCC[C@H](N)C(=O)O; Ms = CS(=O)(=O)*; Sar = CNCC(=O)O

Tested on: H929 myeloma cells
Type: cell-based, human
Settings: for fold more potent than linear HYD1: reference of the 10- and 15-fold statements not expressly named; for bioactivity relative to parent/comparator peptide: SAR statements
Method: H929 cells were treated for 24 hours with varying concentrations of peptide. Cell death was measured by Topro-3 staining and FACS analysis. The IC50 values were obtained from linear regression analysis and an average value was obtained from 3 independent experiments.
Table 4 legend: Structure activity relationship in H929 myeloma cells of cyclic INTEGRIN INTERACTION INHIBITORS derivatives. The minimal bioactive core sequence of INTEGRIN INTERACTION INHIBITORS WSVVM (SEQ ID NO:33) was cyclized using 2 novel reduced amide bond beta turn promoters and KLKLK (SEQ ID NO:34) as the non-recognition sequence. H929 cells were treated with varying concentrations of the indicated peptide for 24 h. Cell viability was determined using Topro-3 staining and FACS analysis after drug treatment. IC50 values were generated from linear regressions generated from the dose response curves (n=mean of 3 independent experiments).
A colony forming assay was used to compare induced cell death in H929 multiple myeloma cells. Cells were treated with integrin interaction inhibitors, shown in FIG. 5 and Table 4, and cell death was measured following 24 hour peptide treatment by TOPRO-3 staining and FACS analysis.

[1] = Table 8, cyclic III peptide analogs, H929 cells, read-out: IC50

SMILES: CSCC[C@@H]1NC(=O)CN(S(C)(=O)=O)CCNC(=O)[C@H](CCCCN)NC(=O)[C@H](CC(C)C)NC(=O)[C@H](CCCCN)NC(=O)[C@H](CC(C)C)NC(=O)[C@H](CCCCN)NC(=O)CN(S(C)(=O)=O)CCNC(=O)[C@H](Cc2c[nH]c3ccccc23)NC(=O)[C@H](CO)NC(=O)[C@H](C(C)C)NC(=O)[C@H](C(C)C)NC1=O [Peptide 2, KLKLKT1MVVSWT1]
- fold more potent compared to the cyclic D-HYD1 variant (H929 cells): 2 fold
- fold more potent than linear HYD1 (H929 cells): 2.5 fold

SMILES: CSCC[C@@H]1NC(=O)CN(S(C)(=O)=O)CCNC(=O)[C@H](CCCCN)NC(=O)[C@H](CC(C)C)NC(=O)[C@H](CCCCN)NC(=O)[C@H](CC(C)C)NC(=O)[C@H](CCCCN)NC(=O)CN(S(C)(=O)=O)CCNC(=O)[C@H](C)NC(=O)[C@H](CO)NC(=O)[C@H](C(C)C)NC(=O)[C@H](C(C)C)NC1=O [Peptide 3, KLKLKT1MVVSAT1]
- bioactivity relative to parent/comparator peptide (H929 cells): decrease in activity

SMILES: CSCC[C@@H]1NC(=O)CN(S(C)(=O)=O)CCNC(=O)[C@H](CCCCN)NC(=O)[C@H](CC(C)C)NC(=O)[C@H](CCCCN)NC(=O)[C@H](CC(C)C)NC(=O)[C@H](CCCCN)NC(=O)CN(S(C)(=O)=O)CCNC(=O)[C@H](Cc2c[nH]c3ccccc23)NC(=O)[C@H](C)NC(=O)[C@H](C(C)C)NC(=O)[C@H](C(C)C)NC1=O [Peptide 4, KLKLKT1MVVAWT1]
- fold more potent than linear HYD1 (H929 cells): approximately 10 fold
- bioactivity relative to parent/comparator peptide (H929 cells): significantly improved the bioactivity
- bioactivity relative to parent/comparator peptide (H929 cells, listed as L-cINTEGRIN INTERACTION INHIBITORSa7): increase in activity

SMILES: CSCC[C@@H]1NC(=O)CN(S(C)(=O)=O)CCNC(=O)[C@H](CCCCN)NC(=O)[C@H](CC(C)C)NC(=O)[C@H](CCCCN)NC(=O)[C@H](CC(C)C)NC(=O)[C@H](CCCCN)NC(=O)CN(S(C)(=O)=O)CCNC(=O)[C@H](Cc2c[nH]c3ccccc23)NC(=O)[C@H](CO)NC(=O)[C@H](C)NC(=O)[C@H](C(C)C)NC1=O [Peptide 5, KLKLKT1MVASWT1]
- bioactivity relative to parent/comparator peptide (H929 cells): decrease in activity

SMILES: CSCC[C@@H]1NC(=O)CN(S(C)(=O)=O)CCNC(=O)[C@H](CCCCN)NC(=O)[C@H](CC(C)C)NC(=O)[C@H](CCCCN)NC(=O)[C@H](CC(C)C)NC(=O)[C@H](CCCCN)NC(=O)CN(S(C)(=O)=O)CCNC(=O)[C@H](Cc2c[nH]c3ccccc23)NC(=O)[C@H](CO)NC(=O)[C@H](C(C)C)NC(=O)[C@H](C)NC1=O [Peptide 6, KLKLKT1MAVSWT1]
- bioactivity relative to parent/comparator peptide (H929 cells): increase in activity

SMILES: CC(C)C[C@@H]1NC(=O)[C@H](CCCCN)NC(=O)CN(S(C)(=O)=O)CCNC(=O)[C@H](Cc2c[nH]c3ccccc23)NC(=O)[C@H](CO)NC(=O)[C@H](C(C)C)NC(=O)[C@H](C(C)C)NC(=O)[C@H](C)NC(=O)CN(S(C)(=O)=O)CCNC(=O)[C@H](CCCCN)NC(=O)[C@H](CC(C)C)NC(=O)[C@H](CCCCN)NC1=O [Peptide 7, KLKLKT1AVVSWT1]
- bioactivity relative to parent/comparator peptide (H929 cells): decrease in activity

SMILES: CCCC[C@@H]1NC(=O)CN(S(C)(=O)=O)CCNC(=O)[C@H](CCCCN)NC(=O)[C@H](CC(C)C)NC(=O)[C@H](CCCCN)NC(=O)[C@H](CC(C)C)NC(=O)[C@H](CCCCN)NC(=O)CN(S(C)(=O)=O)CCNC(=O)[C@H](Cc2c[nH]c3ccccc23)NC(=O)[C@H](CO)NC(=O)[C@H](C(C)C)NC(=O)[C@H](C(C)C)NC1=O [Peptide 8, KLKLKT1N*VVSWT1]
- fold more potent than linear HYD1 (H929 cells): 15 fold
- bioactivity relative to parent/comparator peptide (H929 cells): resulted in a further increase of the peptide's bioactivity

SMILES: CCCC[C@@H]1NC(=O)CN(S(C)(=O)=O)CCNC(=O)[C@H](CCCCN)NC(=O)[C@H](CC(C)C)NC(=O)[C@H](CCCCN)NC(=O)[C@H](CC(C)C)NC(=O)[C@H](CCCCN)NC(=O)CN(S(C)(=O)=O)CCNC(=O)[C@H](Cc2c[nH]c3ccccc23)NC(=O)[C@H](Cc2ccc(O)cc2)NC(=O)[C@H](C(C)C)NC(=O)[C@H](C(C)C)NC1=O [Peptide 9, KLKLKT1N*VVYWT1]
- bioactivity relative to parent/comparator peptide (H929 cells): had a similar bioactivity as the inverso cyclic III peptide 8

SMILES: CCCC[C@@H]1NC(=O)CN(S(C)(=O)=O)CCNC(=O)[C@H](CCCCN)NC(=O)[C@H](CC(C)C)NC(=O)[C@H](CCCCN)NC(=O)[C@H](CC(C)C)NC(=O)[C@H](CCCCN)NC(=O)COC[C@H]2CCCN2C(=O)[C@H](Cc2c[nH]c3ccccc23)NC(=O)[C@H](C)NC(=O)[C@H](C(C)C)NC(=O)[C@H](C(C)C)NC1=O [Peptide 16, KLKLKT1N*VVAWT3] (Ms-[N(2-Aminoethyl)Gly][Nle]VVAW[dProlinol(O-CH2CO)]KLKLK; lactam 1-C)
- IC50 (H929 myeloma cells, 24 h treatment, Topro-3 staining and FACS, mean of at least 3 independent experiments, read-out: IC50): 13 µM
- IC50 (text b390, H929 multiple myeloma cells, read-out: bioactivity): 1 µM

- IC50 (24 h): 19 µM
SMILES: CCCC[C@@H]1NC(=O)CN(S(C)(=O)=O)CCNC(=O)[C@H](CCCCN)NC(=O)[C@H](CC(C)C)NC(=O)[C@H](CCCCN)NC(=O)[C@H](CC(C)C)NC(=O)[C@H](CCC(N)=O)NC(=O)COC[C@H]2CCCN2C(=O)[C@H](Cc2c[nH]c3ccccc23)NC(=O)[C@H](C)NC(=O)[C@H](C(C)C)NC(=O)[C@H](C(C)C)NC1=O [Peptide 18, QLKLKT1N*VVAWT3] (Ms-[N(2-Aminoethyl)Gly][Nle]VVAW[dProlinol(O-CH2CO)]QLKLK; lactam 1-C)

- IC50 (24 h): 17 µM
SMILES: CCCC[C@@H]1NC(=O)[C@H](C(C)C)NC(=O)[C@H](C(C)C)NC(=O)[C@H](C)NC(=O)[C@H](Cc2c[nH]c3ccccc23)NC(=O)COC[C@H]2CCCN2C(=O)[C@H](CCCCN)NC(=O)[C@H](CC(C)C)NC(=O)[C@H](CCCCN)NC(=O)[C@H](CC(C)C)NC(=O)[C@H](CCCCN)NC(=O)COC[C@H]2CCCN2C1=O [Peptide 22, KLKLKT3WAVVN*T3] (cyclo(KLKLK[dProlinol(O-CH2CO)]WAVV[Nle][dProlinol(O-CH2CO)]))

- IC50 (24 h): > 150 µM
SMILES: CCCC[C@@H]1NC(=O)[C@H](C(C)C)NC(=O)[C@H](C(C)C)NC(=O)[C@H](C)NC(=O)[C@H](Cc2c[nH]c3ccccc23)NC(=O)COC[C@H]2CCCN2C(=O)[C@H](CCCCN)NC(=O)CN(C)C(=O)[C@H](CCCCN)NC(=O)CN(C)C(=O)[C@H](CCCCN)NC(=O)COC[C@H]2CCCN2C1=O [Peptide 23, KXKXKT3WAVVN*T3] (cyclo(K[Sar]K[Sar]K[dProlinol(O-CH2CO)]WAVV[Nle][dProlinol(O-CH2CO)]))
- bioactivity relative to parent/comparator peptide (H929 cells): poor bioactivity

SMILES: CCCC[C@@H]1NC(=O)CN(S(C)(=O)=O)CCNC(=O)[C@H](CCCCN)NC(=O)[C@H](CC(C)C)NC(=O)[C@H](CCCCN)NC(=O)[C@H](CC(C)C)NC(=O)[C@H](CCCCN)NC(=O)COC[C@H]2CCCN2C(=O)[C@H](Cc2c[nH]c3ccccc23)NC(=O)[C@H](C)NC(=O)[C@H](CC(C)C)NC(=O)[C@H](C(C)C)NC1=O [Peptide 24, KLKLKT1N*VLAWT3] (Ms-[N(2-Aminoethyl)Gly][Nle]VLAW[dProlinol(O-CH2CO)]KLKLK; lactam 1-C)
- IC50 [1]: 10 µM

SMILES: CCCC[C@@H]1NC(=O)CN(S(C)(=O)=O)CCNC(=O)[C@H](CCCCN)NC(=O)[C@H](CC(C)C)NC(=O)[C@H](CCCCN)NC(=O)[C@H](CC(C)C)NC(=O)[C@H](CCCCN)NC(=O)COC[C@H]2CCCN2C(=O)[C@H](Cc2c[nH]c3ccccc23)NC(=O)[C@H](C)NC(=O)[C@H]([C@@H](C)CC)NC(=O)[C@H](C(C)C)NC1=O [Peptide 25, KLKLKT1N*VIAWT3] (Ms-[N(2-Aminoethyl)Gly][Nle]VIAW[dProlinol(O-CH2CO)]KLKLK; lactam 1-C)
- IC50 [1]: 10 µM
